Reference: patent US20230234936A1, “COMPOUND FOR TARGETING AND DEGRADING PROTEIN, AND PREPARATION METHOD THEREFOR AND USE THEREOF” (SHANGHAI LEADINGTAC PHARMACEUTICAL CO., LTD., priority 2020, published 2023)

Columns and labels:
[1] = target: T1, IKZF3 in L363 cells (Homo sapiens, UniProt Q96SW2+Q9UKT9); assay: Degradation of IKZF3 in L363 cells (Western blot); format: cell-based; settings: 1000 nM, 16 hours
T1 construct: endogenous in cells; host or cells: L363
Protocol: The 24-well cell culture plate was inoculated with 0.95 mL L363 cells (Nanjing Co-bioer) per well with a cell density of 6×10^5 cells/well. The cell plate was placed in a 5% carbon dioxide incubator and cultured at 37° C. for 8 hours, then 50 μL of compound solution was added. The final concentration of the compound was 1000 nM. After continuing to culture for 16 hours, the cells were collected into a 1.5 mL centrifuge tube and centrifuged at 3000 rpm and 4° C. for 5 minutes. Cell precipitation was cleaned twice with 1×DPBS, resuspended cells were lysed with 100 μL lysate (cell lysate was Western and IP cell lysate (Beyotime), supplemented with 1 mM mixture of phenylmethylsulfonyl fluoride and protease inhibitor (Beyotime)), left on ice for 30 minutes, then centrifuged at 14000 g at 4° C. for 10 minutes, and the supernatant was taken to detect IKZF1 and IKZF3 protein level by Western blot.
The total protein concentration in the supernatant of cell lysis was determined by BCA protein quantitative kit (Tiangen). According to the concentration of total protein detected by BCA, the supernatant was adjusted to 0.2 μg/μL with PBS and 5× SDS-PAGE protein loading buffer (Beyotime), bathed in water at 100° C. for 10 minutes, then placed in ice bath for 5 minutes, centrifuged at 14000 g and 4° C. for 5 minutes, and then collected as WB loading sample. Prefabricated glue (KeyGEN) was used for protein electrophoresis with a loading amount of 10 μL (total protein 2 μg). After Tris-MOPS-SDS electrophoresis solution (Adamas), 120V constant pressure electrophoresis was performed. After electrophoresis, the protein on the adhesive strip was transferred to PVDF membrane with a constant current of […] for 50 minutes. After the membrane was transferred, the membrane was incubated in 5% bovine serum albumin solution for 2 hours at room temperature. After blocking, PVDF membranes were incubated with IKZF1 primary antibody (CST) and IKZF3 primary antibody (Abcam) overnight at 4°, the membranes were washed with TBST buffer (2.4 g Tris, 8.8 g NaCl, 1.5 mL Tween 20, pH adjusted to 7.4, constant volume to IL) for 30 minutes, incubated with secondary antibody (Abcam) for 2 hours at room temperature, finally incubated with Clarity Western ECL Substrate(BIO-RAD) for 5 minutes for luminescence development, chemiluminescence imaging system (Clinx, chemiScope 6200 Touch) for development and protein mapping photography. The protein map was analyzed by Clinx chemiluminescence analysis software for grayscale values. Using the formula: grayscale correction value=(target protein grayscale value/corresponding internal reference grayscale value)×10^3, the grayscale correction value of each sample was calculated. The degradation rate was calculated by comparing with the grayscale correction value of the control group.

[2] = target: T2, IRAK4 kinase (Homo sapiens, UniProt Q9NWZ3); assay: IRAK4 kinase activity test (KinEASE-STK S1 HTRF kit); format: biochemical; settings: 2.5 nM kinase, 1 μM biotinylated polypeptide substrate, 7 μM ATP, 37° C. 120 min
T2 sequence (Q9NWZ3 1-460): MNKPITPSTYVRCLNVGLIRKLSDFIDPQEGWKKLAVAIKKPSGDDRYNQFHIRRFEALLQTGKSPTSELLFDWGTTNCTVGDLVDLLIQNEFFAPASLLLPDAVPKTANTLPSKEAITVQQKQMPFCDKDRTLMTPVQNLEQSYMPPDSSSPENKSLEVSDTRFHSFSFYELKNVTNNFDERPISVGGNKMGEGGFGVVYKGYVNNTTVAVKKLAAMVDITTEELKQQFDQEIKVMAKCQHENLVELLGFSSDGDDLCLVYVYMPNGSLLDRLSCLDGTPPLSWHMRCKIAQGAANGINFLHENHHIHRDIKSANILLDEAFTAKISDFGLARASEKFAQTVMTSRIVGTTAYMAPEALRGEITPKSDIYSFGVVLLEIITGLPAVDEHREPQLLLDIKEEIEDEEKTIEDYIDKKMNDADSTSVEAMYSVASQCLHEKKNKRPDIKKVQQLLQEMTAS
Summary of the method: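 Compound in DMSO, serially diluted to 10000–0.038 nM final, incubated with 2.5 nM kinase, 1 μM biotinylated peptide substrate and 7 μM ATP at 37° C for 120 min. Eu-anti-phospho-Ser/Thr antibody plus streptavidin-XL665 stopped the reaction (1 h RT). HTRF 665/620 nm ratio gave % inhibition versus control; IC50 from nonlinear log-concentration fit.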

T1 sequence (Q9UKT9 whole entry): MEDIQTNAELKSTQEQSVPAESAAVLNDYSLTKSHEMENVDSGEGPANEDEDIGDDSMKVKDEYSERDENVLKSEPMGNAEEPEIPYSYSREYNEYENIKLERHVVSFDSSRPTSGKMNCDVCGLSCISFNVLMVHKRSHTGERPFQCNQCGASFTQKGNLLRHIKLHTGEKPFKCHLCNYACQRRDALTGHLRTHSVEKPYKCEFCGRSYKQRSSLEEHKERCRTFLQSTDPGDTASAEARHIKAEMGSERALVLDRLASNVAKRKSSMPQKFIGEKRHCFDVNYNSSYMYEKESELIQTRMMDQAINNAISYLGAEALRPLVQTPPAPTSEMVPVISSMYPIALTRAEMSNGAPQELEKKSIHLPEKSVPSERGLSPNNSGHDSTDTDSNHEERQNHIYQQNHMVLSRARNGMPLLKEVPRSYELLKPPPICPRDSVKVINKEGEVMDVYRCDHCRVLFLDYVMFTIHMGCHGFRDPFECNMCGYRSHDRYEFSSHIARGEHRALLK
T1 sequence (Q96SW2 whole entry): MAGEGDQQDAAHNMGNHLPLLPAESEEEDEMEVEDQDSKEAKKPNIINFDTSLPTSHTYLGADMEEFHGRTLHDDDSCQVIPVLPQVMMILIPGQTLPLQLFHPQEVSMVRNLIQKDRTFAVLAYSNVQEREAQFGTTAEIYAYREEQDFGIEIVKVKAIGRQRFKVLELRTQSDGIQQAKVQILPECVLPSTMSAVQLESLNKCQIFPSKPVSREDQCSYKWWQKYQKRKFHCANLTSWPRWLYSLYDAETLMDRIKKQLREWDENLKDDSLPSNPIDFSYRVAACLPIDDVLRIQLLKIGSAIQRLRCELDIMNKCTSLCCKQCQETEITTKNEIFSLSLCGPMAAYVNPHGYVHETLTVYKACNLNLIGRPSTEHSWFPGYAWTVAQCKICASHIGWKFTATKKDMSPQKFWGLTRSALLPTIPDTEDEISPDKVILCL
T1 sequence (Q16531 whole entry partner): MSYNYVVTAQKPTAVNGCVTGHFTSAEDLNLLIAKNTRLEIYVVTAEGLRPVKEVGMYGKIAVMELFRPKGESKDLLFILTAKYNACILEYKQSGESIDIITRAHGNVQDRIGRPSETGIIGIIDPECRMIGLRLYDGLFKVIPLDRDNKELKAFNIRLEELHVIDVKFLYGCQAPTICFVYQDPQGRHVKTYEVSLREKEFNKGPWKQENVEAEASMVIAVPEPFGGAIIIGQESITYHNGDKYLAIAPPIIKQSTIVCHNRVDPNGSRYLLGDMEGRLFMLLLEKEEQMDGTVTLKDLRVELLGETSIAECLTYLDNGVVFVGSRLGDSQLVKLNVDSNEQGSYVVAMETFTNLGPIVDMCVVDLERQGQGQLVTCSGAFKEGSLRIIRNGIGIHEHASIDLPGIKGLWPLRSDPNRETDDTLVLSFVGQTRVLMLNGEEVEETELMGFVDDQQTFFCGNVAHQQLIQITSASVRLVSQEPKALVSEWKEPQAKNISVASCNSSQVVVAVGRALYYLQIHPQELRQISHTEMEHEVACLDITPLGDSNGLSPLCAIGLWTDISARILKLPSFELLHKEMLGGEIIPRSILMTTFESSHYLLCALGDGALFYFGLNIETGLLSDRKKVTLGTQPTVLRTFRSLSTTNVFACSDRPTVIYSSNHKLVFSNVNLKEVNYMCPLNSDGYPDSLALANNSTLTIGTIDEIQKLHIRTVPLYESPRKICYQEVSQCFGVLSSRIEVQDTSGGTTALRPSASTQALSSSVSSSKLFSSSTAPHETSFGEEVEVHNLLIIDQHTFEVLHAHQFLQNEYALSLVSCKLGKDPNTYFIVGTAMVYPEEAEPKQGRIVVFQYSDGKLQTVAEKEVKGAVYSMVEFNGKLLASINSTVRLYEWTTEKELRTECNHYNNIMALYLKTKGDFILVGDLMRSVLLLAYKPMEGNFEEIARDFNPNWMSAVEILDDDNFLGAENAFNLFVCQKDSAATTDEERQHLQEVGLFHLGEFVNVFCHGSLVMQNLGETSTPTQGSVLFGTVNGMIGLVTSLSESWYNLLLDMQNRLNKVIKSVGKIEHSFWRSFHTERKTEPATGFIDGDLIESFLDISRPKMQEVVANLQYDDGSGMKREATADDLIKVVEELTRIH

For COc1cc2nn(C3CCN(CC4CCN(CCOc5ccc6c(c5)C(=O)N(C5CCC(=O)NC5=O)C6=O)CC4)CC3)cc2cc1NC(=O)c1cccc(C(F)(F)F)n1 (stereo not drawn) [Control group 2, N-(2-(1-((1-(2-((2-(2,6-dioxopiperidin-3-yl)-1,3-dioxoisoindol-5-yl)oxy)ethyl)piperidin-4-yl)methyl)piperidin-4-yl)-6-methoxy-2H-indazol-5-yl)-6-(trifluoromethyl) pyridinecarboxamide, reference compound], the IKZF3 degradation rate [1] was 71.2 ± 5.7% and the IC50 [2] was 15.2 nM.

CN(CC1CCN(c2cccc3c2C(=O)N(C2CCC(=O)NC2=O)C3=O)CC1)C[C@H]1CC[C@H](n2cc3cc(NC(=O)c4cccc(C(F)(F)F)n4)c(C(C)(C)O)cc3n2)CC1 (stereo partly drawn) [Control group 3, N-(2-((1r,4r)-4-((((1-(2-(2,6-dioxopiperidin-3-yl)-1,3-dioxoisoindolin-4-yl)piperidin-4-yl)methyl) (methyl)amino)methyl)cyclohexyl)-6-(2-hydroxyprop-2-yl)-2H-indazol-5-yl)-6-(trifluoromethyl) pyridinecarboxamide, reference compound] showed an IKZF3 degradation rate [1] of 92.8 ± 5.0% and an IC50 [2] of 16.2 nM.

Work on CC(C)(O)c1cc2nn(C3CCN(CC4CCC5(CC4)CCN(C(=O)c4ccc(Cl)c(N6CCC(=O)NC6=O)c4)CC5)CC3)cc2cc1NC(=O)c1cccc(C(F)(F)F)n1 [Example 31, N-(2-(1-((3-(4-chloro-3-(2,4-dioxotetrahydro-pyrimidin-1 (2H)-yl)benzoyl)-3-azaspiro [5.5]undec-9-yl)methyl)piperdin-4-yl)-6-(2-hydroxyprop-2-yl)-2H-indazol-5-yl)-6-(trifluoro-methyl) pyridinecarbox-amide] yielded an IKZF3 degradation rate [1] of 17.8 ± 3.6% and an IC50 [2] of 14 nM.
